System: lashes and adjacent hairs of patients
Experiment: Observation of eyelash/hair growth in glaucoma patients treated in one eye
Format: in vivo, human
Conditions: glaucoma patient treated in one eye only
Excerpt: In the course of treating patients having glaucoma, treatment may only be appropriate in one eye. […] The lash appearance on the lids of the treated eyes would have appeared quite attractive if it represented a bilateral phenomenon. As a result of its asymmetric nature, the long lashes on one side could be construed as disturbing from a cosmetic standpoint. A systemic examination was preformed as a result of the asymmetric phenomenon. It soon became apparent that this altered appearance was not an isolated finding. […] Definite differences could be identified to varying degrees in the lashes and adjacent hairs of all patients who were taking the drug on a unilateral basis for longer than 6 months.
The changes in the lashes were apparent on gross inspection in several patients once attention was focused on the issue. In those with light colored hair and lashes, the differences were only seen easily with the aid of the high magnification and lighting capabilities of the slit lamp biomicroscope. In the course of glaucoma follow-up examination, attention is generally immediately focused on the eye itself. As a result of the high power magnification needed only one eye is seen at a time and the eye is seen at a high enough power that the lashes are not in focus. […]

CCNC(=O)CCC/C=C\C[C@@H]1[C@@H](/C=C/[C@@H](O)CCc2ccccc2)[C@H](O)C[C@@H]1O [bimatoprost]
lash appearance in treated eye versus non-treated eye: longer, thicker, and fuller

Reference: patent US8063033B2, “Therapeutic beta-lactams” (Allergan, Inc., priority 2008, dated 2011)
